# Like-named read-outs stand apart in the source and are kept apart here.
# Assays:
# [1] = target: T1, human BRD4 bromodomain II (Homo sapiens, UniProt O60885); assay: Bromodomain binding assay (AlphaScreen), BRD4 BDII
# T1 construct: human BRD4 bromodomain II [based on Genbank NM_058243, residues 349-460]; host or cells: E. coli
# Summary of the method: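 Compounds (10-point, 3-fold series) were preincubated 30 min at room temperature with E. coli-expressed N-terminal His6-tagged BRD4 BDII (residues 349-460) or BDI (residues 44-170) in 50 mM HEPES pH 7.5, 100 mM NaCl, 0.05% CHAPS, 0.1% BSA, 1% DMSO. Displacement of biotinylated tetra-acetylated H4 1-21 peptide was read by AlphaScreen; IC50 from curve fitting.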
# [2] = test system: human SKM-1 acute myeloid leukemia cells; assay: SKM-1 antiproliferation cell-based assay (ATPlite); details: Homo sapiens
# Summary of the method: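 Log-phase cells in RPMI 1640/15% FBS were seeded at 34722 cells/mL and exposed for 4 days to nine-concentration DMSO serial dilutions in triplicate. Viability was read as ATP luminescence (ATPlite 1step), and IC50 values came from variable-slope non-linear regression.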
# [3] = AlphaScreen assay, Table C2, read-out: BRD4 BDII IC50
# [4] = SKM-1, 96 h, SKM-1 antiproliferation assay, 4 days, Table C2
# [5] = BRD4 BDII AlphaScreen assay, read-out: BRD4 BD2 IC50
# [6] = SKM-1, SKM-1 antiproliferation assay
SMILES,"IC50 [1, 3]","GI50 [2, 4]","IC50 [1, 5]","GI50 [2, 6]"
"COc1cc(-c2ccnc(N3CCNCC3)c2)c(O)c(-c2ccc(N3CCN(C)C3=O)c(Cl)c2)c1 [Example 312, l-(3-chloro-2′-hydroxy-5′-methoxy-3′-(2-(piperazin-1-yl)pyridin-4-yl)-[1,1′-biphenyl]-4-yl)-3-methylimidazolidin-2-one]",1 to 10 nM,30 to 300 nM,–,–
"Cn1ccn(-c2ccc(-c3cc(F)cc(-c4cc(Cl)cc(N5CCN(C(C)(C)C)CC5)c4)c3O)cc2Cl)c1=O [Example 827, 1-(3″-(4-(tert-butyl)piperazin-1-yl)-3,5″-dichloro-5′-fluoro-2′-hydroxy-[1,1′:3′,1″-terphenyl]-4-yl)-3-methyl-1H-imidazol-2(3H)-one]",0.01 to 1 nM,0.3 to 30 nM,–,–
"Cn1ccn(-c2ccc(-c3cc(F)cc(-c4ccnc(N5CC6CCNC6C5)c4)c3O)cc2Cl)c1=O (centres unmarked) [Example 655, 1-(3-chloro-5′-fluoro-3′-(2-(hexahydropyrrolo[3,4-b]pyrrol-5(1H)-yl)pyridin-4-yl)-2′-hydroxy-[1,1′-biphenyl]-4-yl)-3-methyl-1H-imidazol-2(3H)-one]",0.01 to 1 nM,0.3 to 30 nM,–,–
"Cn1ccn(-c2ccc(-c3cc(F)cc(-c4cc(N5CC[C@@H](N)C5)c5cn[nH]c5c4)c3O)cc2Cl)c1=O [Example 593, (R)-1-(3′-(4-(3-aminopyrrolidin-1-yl)-1H-indazol-6-yl)-3-chloro-5′-fluoro-2′-hydroxy-[1,1′-biphenyl]-4-yl)-3-methyl-1H-imidazol-2(3H)-one]",0.01 to 1 nM,0.3 to 30 nM,–,–
"CC1(C)CCN(c2ccc(-c3cccc(-c4ccnc(N5CCNCC5)c4)c3O)cc2Cl)C1=O [Example 329, 1-(3-chloro-2′-hydroxy-3′-(2-(piperazin-1-yl)pyridin-4-yl)-[1,1′-biphenyl]-4-yl)-3,3-dimethylpyrrolidin-2-one]",> 100 nM,300 to 3000 nM,–,–
"C[C@@H]1CN(c2cc(-c3cc(F)cc(-c4ccc(-n5ccn(C)c5=O)c(Cl)c4)c3O)cn3ncnc23)CCN1 [Example 602, (R)-1-(3-chloro-5′-fluoro-2′-hydroxy-3′-(8-(3-methylpiperazin-1-yl)-[1,2,4]triazolo[1,5-a]pyridin-6-yl)-[1,1′-biphenyl]-4-yl)-3-methyl-1H-imidazol-2(3H)-one]",0.01 to 1 nM,0.3 to 30 nM,–,–
"Cn1ccn(-c2ccc(-c3cc(F)cc(-c4ccnc(N5CCCC5)c4)c3O)cc2Cl)c1=O [Example 613, 1-(3-chloro-5′-fluoro-2′-hydroxy-3′-(2-(pyrrolidin-1-yl)pyridin-4-yl)-[1,1′-biphenyl]-4-yl)-3-methyl-1H-imidazol-2(3H)-one]",1 to 10 nM,30 to 300 nM,–,–
"CC(=O)Nc1ccc(-c2cccc(-c3ccnc(N4CCN[C@H](C)C4)c3)c2O)cc1Cl [Example 256, (R)-N-(3-chloro-2′-hydroxy-3′-(2-(3-methylpiperazin-1-yl)pyridin-4-yl)-[1,1′-biphenyl]-4-yl)acetamide]",1 to 10 nM,300 to 3000 nM,–,–
"Cn1ccn(-c2ccc(-c3cc(F)cc(-c4ccnc(N5CCC(C)(NS(C)(=O)=O)C5)c4)c3O)cc2Cl)c1=O (centres unmarked) [Example 792, N-(1-(4-(3′-chloro-5-fluoro-2-hydroxy-4′-(3-methyl-2-oxo-2,3-dihydro-1H-imidazol-1-yl)-[1,1′-biphenyl]-3-yl)pyridin-2-yl)-3-methylpyrrolidin-3-yl)methanesulfonamide]",> 100 nM,300 to 3000 nM,–,–
"CN1CCN(c2ccc(-c3cc(F)cc(-c4cnc(N5CCCC5)c(N5CCNCC5)c4)c3O)cc2Cl)C1=O [Example 397, 1-(3-chloro-5′-fluoro-2′-hydroxy-3′-(5-(piperazin-1-yl)-6-(pyrrolidin-1-yl)pyridin-3-yl)-[1,1′-biphenyl]-4-yl)-3-methylimidazolidin-2-one]",1 to 10 nM,30 to 300 nM,–,–
"Cn1ccn(-c2ccc(-c3cc(F)cc(-c4ccc(C(F)F)c(N5CCN(C(C)(C)C)CC5)c4)c3O)cc2Cl)c1=O [Example 813, 1-(3″-(4-(tert-butyl)piperazin-1-yl)-3-chloro-4″-(difluoromethyl)-5′-fluoro-2′-hydroxy-[1,1′:3′,1″-terphenyl]-4-yl)-3-methyl-1H-imdiazol-2(3H)-one]",0.01 to 1 nM,30 to 300 nM,–,–
"Cc1ccc(-c2cc(F)cc(-c3ccc(-n4ccn(C)c4=O)c(Cl)c3)c2O)cc1N1CCN(C(C)(C)C)CC1 [Example 800, 1-(3″-(4-(tert-butyl)piperazin-1-yl)-3-chloro-5′-fluoro-2′-hydroxy-4″-methyl-[1,1′:3′,1″-terphenyl]-4-yl)-3-methyl-1H-imidazol-2(3H)-one]",0.01 to 1 nM,0.3 to 30 nM,–,–
"Cn1ccn(-c2c(Cl)cc(-c3cc(F)cc(-c4ccnc(N5CCNCC5)c4)c3O)cc2Cl)c1=O [Example 408, 1-(3,5-dichloro-5′-fluoro-2′-hydroxy-3′-(2-(piperazin-1-yl)pyridin-4-yl)-[1,1′-biphenyl]-4-yl)-3-methyl-1H-imidazol-2(3H)-one]",10 to 100 nM,300 to 3000 nM,–,–
"Cc1cc(-c2ccc(-n3ccn(C)c3=O)c(Cl)c2)c(O)c(-c2cnc(N(C)C)c(N3CCC4(CCCN4C(C)C)C3)c2)n1 (centres unmarked) [Example 994, 1-(2-Chloro-4-(6′-(dimethylamino)-3-hydroxy-5′-(1-isopropyl-1,7-diazaspiro[4.4]nonan-7-yl)-6-methyl-[2,3′-bipyridin]-4-yl)phenyl)-3-methyl-1H-imidazol-2(3H)-one]",–,–,1 to 10 nM,0.3 to 30 nM
"Cn1ccn(-c2ccc(-c3cc(F)cc(-c4cncc(N5CCC[C@H](N)C5)c4)c3O)cc2Cl)c1=O [Example 461, (S)-1-(3′-(5-(3-aminopiperidin-1-yl)pyridin-3-yl)-3-chloro-5′-fluoro-2′-hydroxy-[1,1′-biphenyl]-4-yl)-3-methyl-1,3-dihydro-2H-imidazol-2-one]",0.01 to 1 nM,0.3 to 30 nM,–,–
"CNc1ncc(-c2nccc(-c3ccc(-n4ccn(C)c4=O)c(Cl)c3)c2O)cc1N1CCN(C(C)(C)C)CC1 [Example 986, 1-(4-(5′-(4-(tert-butyl)piperazin-1-yl)-3-hydroxy-6′-(methylamino)-[2,3′-bipyridin]-4-yl)-2-chlorophenyl)-3-methyl-1H-imidazol-2(3H)-one]",–,–,1 to 10 nM,0.3 to 30 nM
"Cn1ccn(-c2ccc(-c3cc(F)cc(-c4ccnc(N5CCN[C@H](CC(N)=O)C5)c4)c3O)cc2Cl)c1=O [Example 644, (R)-2-(4-(4-(3′-chloro-5-fluoro-2-hydroxy-4′-(3-methyl-2-oxo-2,3-dihydro-1H-imidazol-1-yl)-[1,1′-biphenyl]-3-yl)pyridin-2-yl)piperazin-2-yl)acetamide]",0.01 to 1 nM,0.3 to 30 nM,–,–
"CC(C)(C)N1CCN(c2cccc(-c3nccc(-c4ccc(-n5cc[nH]c5=O)c(Cl)c4)c3O)c2)CC1 [Example 1038, 1-(4-(2-(3-(4-(tert-butyl)piperazin-1-yl)phenyl)-3-hydroxypyridin-4-yl)-2-chlorophenyl)-1H-imidazol-2(3H)-one]",–,–,10 to 100 nM,30 to 300 nM
"C[C@@H]1CN(c2cc(-c3cc(F)cc(-c4ccc(-n5ccn(C)c5=O)c(Cl)c4)c3O)cc3[nH]ccc23)CCN1 [Example 551, (R)-1-(3-chloro-5′-fluoro-2′-hydroxy-3′-(4-(3-methylpiperazin-1-yl)-1H-indol-6-yl)-[1,1′-biphenyl]-4-yl)-3-methyl-1H-imidazol-2(3H)-one]",0.01 to 1 nM,0.3 to 30 nM,–,–

# From patent publication US20250179059A1 (The Regents of the University of California, priority 2021, published 2025)
